What was measured:
[1] = Metabolic stability in human serum assessed as compound remaining at 3 mM after 24 hrs by HPLC analysis; format: ADME, cell-free; conditions: read-out: Stability
[2] = Metabolic stability in human serum assessed as compound remaining at 3 mM after 72 hrs by HPLC analysis; format: ADME, cell-free; conditions: read-out: Stability

| Compound | remaining at 24 h, 3000 µM [1] [%] | remaining at 72 h, 3000 µM [2] [%] |
| --- | --- | --- |
| CC(C)C[C@H](NC(=O)[C@H](CC(=O)O)NC(=O)[C@H](CCC(=O)O)NC(=O)[C@@H](NC(=O)[C@H](CC(C)C)NC(=O)[C@H](CCC(=O)O)NC(=O)C(C)(C)NC(=O)[C@H](Cc1c[nH]c2ccccc12)NC(=O)[C@@H](NC(=O)[C@@H](N)CC(=O)O)[C@@H](C)O)C(C)C)C(=O)N[C@@H](CC(N)=O)C(=O)NCC(=O)NCC(=O)NCC(=O)N[C@@H](CO)C(=O)N[C@@H](Cc1ccc(Br)cc1)C(=O)N[C@@H](CCCNC(=N)N)C(N)=O | 24 | – |
| CC(C)C[C@@H](NC(=O)[C@@H](CC(=O)O)NC(=O)[C@@H](CCC(=O)O)NC(=O)[C@H](NC(=O)[C@@H](CC(C)C)NC(=O)[C@@H](CCC(=O)O)NC(=O)C(C)(C)NC(=O)[C@@H](Cc1c[nH]c2ccccc12)NC(=O)[C@H](NC(=O)[C@H](N)CC(=O)O)[C@@H](C)O)C(C)C)C(=O)N[C@H](CC(N)=O)C(=O)NCC(=O)NCC(=O)NCC(=O)N[C@@H](CO)C(=O)N[C@@H](Cc1ccc(Br)cc1)C(=O)N[C@@H](CCCNC(=N)N)C(N)=O | 62 | 36 |

From ChEMBL document CHEMBL4184127, “Isolation of a peptide containing d-amino acid residues that inhibits the α-helix-mediated p53-MDM2 interaction from a one-bead one-compound library” (Bioorg Med Chem Lett, 2018)
